According to ChEMBL document CHEMBL4808217, “Design, Synthesis, and Characterization of 4-Aminoquinazolines as Potent Inhibitors of the G Protein-Coupled Receptor Kinase 6 (GRK6) for the Treatment of Multiple Myeloma” (J Med Chem, 2021):

Target: G protein-coupled receptor kinase 6 (Homo sapiens, UniProt P43250)
Assay: Inhibition of recombinant full-length human GRK6 using casein as substrate at 1 uM measured after 80 mins in presence of [gamma33P]ATP by radiometric scintillation counting method relative to control

G protein-coupled receptor kinase 6, sequence (P43250 whole entry, looked up): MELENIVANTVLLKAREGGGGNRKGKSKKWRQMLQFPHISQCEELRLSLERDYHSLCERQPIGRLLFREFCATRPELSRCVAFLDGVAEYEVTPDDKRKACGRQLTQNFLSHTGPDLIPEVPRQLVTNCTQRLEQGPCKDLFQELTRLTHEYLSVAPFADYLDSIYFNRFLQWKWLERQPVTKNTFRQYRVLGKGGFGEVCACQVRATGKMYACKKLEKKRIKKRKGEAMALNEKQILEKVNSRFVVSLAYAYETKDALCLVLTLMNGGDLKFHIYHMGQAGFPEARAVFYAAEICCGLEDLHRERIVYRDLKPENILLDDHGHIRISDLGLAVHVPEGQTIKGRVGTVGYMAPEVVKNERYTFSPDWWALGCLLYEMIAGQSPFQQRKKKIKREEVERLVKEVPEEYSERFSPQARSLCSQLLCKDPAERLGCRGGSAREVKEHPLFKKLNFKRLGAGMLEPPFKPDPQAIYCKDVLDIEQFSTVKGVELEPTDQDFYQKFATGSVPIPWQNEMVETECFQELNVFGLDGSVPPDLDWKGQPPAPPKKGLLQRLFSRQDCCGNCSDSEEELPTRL

Question: With `Cc1cc(Nc2nc(N[C@@H](C)c3ccc(F)cc3)c(C#N)cc2F)n[nH]1` as the compound, how does the inhibition read?
Answer: The inhibition was 79%.

Question: For `N#CCc1ccc(Nc2nc(Nc3cc(C4CCC4)[nH]n3)c3ccccc3n2)cc1`, which inhibition is on record?
Answer: Its inhibition is 95%.
